From patent publication US20080287532A1, “OXACYCLOPENTENE-2 DERIVATIVES” (priority 2007, published 2008)
Read-outs that look alike come from different tables or passages of the source.

Assays:
[1] = tested on: anti-SRBC IgM secreting plasma cells (antibody-forming cells, AFC); assay type: in vivo; details: for AFC number increase, % of control: mice immunized with SRBC
Description: Humoral-mediated immune response is routinely measured using the antibody-forming cell (AFC) assay. Primarily used for evaluating humoral immunity, this assay, in fact, evaluates overall immune competence including T- and B-cell function, antigen processing and presentation. Sheep Red Blood Cells (SRBC) are the most common T-dependent antigen used for this assay.
Primary IgM response after SRBC administration was quantitatively estimated using a modified hemolytic plaque-forming cell assay
Since SRBC are T-dependent antigen, a normal AFC response depends on multiple factors: antigen processing and presentation actuated by macrophages, appropriate T-cell signalling, B-cells differentiation, and affinity maturation of antibodies in plasma cells.
(§1) For induction of a primary humoral PFC response, C57BL/6J mice were immunized intraperitoneally with 0.1 ml of a 5% suspension of SRBC, containing 1×10^8 cells. On day 5 after immunization animals were sacrificed under deep ether anesthesia, spleens were dissected out and minced through a stainless steel mesh. Individual spleen cell suspensions were washed three times with Hank's BSS, nucleated cells number was determined with a haemocytometer, viability was assessed by exclusion of trypan blue and adjusted to 1×10^7 viable cells per ml in Medium 199 containing Earle's salts and L-glutamine.
(§2) For the PFC assay, suspensions containing 1×10^6 spleen cells, 1×10^9 SRBCs and guinea pig serum (diluted 1:10, a source of complement), were introduced into a Cunningham chambers (100 μl volume) and incubated for 1 h at 37° C. The number of hemolytic plaques, produced by anti-SRBC IgM secreting plasma cells, was counted using a light microscope, and the number of PFC determined for each mice was expressed per 1×10^6 spleen cells and per whole spleen.

[2] = tested on: cellular immune response (T-cells response) to SRBC; experiment: Delayed Type Hypersensitivity test (DTH), foot pad edema after SRBC challenge; assay type: in vivo, mice
Experimental: The method of Lagrange et al. was used. Mice were sensitized intravenously (iv) with 10^5 SRBC in saline. After 4 days, the mice were given eliciting dose of the antigen: 10^8 SRBS in 20 mcl of sterile saline into right hind paw, left hind paw was injected with 20 mcl of sterile saline. In 24 hours after challenge, the foot pad edema volume was measured using a caliper. The difference in volume (mcl) between the right paw (antigen-injected) and left paw (saline-injected) is calculated (Δ) and used as edema volume.

[3] = tested on: antibody production (AFC) after Adriamycin immunosuppression; experiment: Adriamycin-induced immunosuppression model, antibody (AFC) response to SRBC; assay type: in vivo, mice
Experimental: as §1, §2
Immunosupression in mice was induced by parentreral administration of Adriamycin or Cyclophosphamide. Mice were injected with Adriamycin intraperitoneally in a dose of 5 mg/kg one day before the immunization with SRBC. Cyclophosphamide was used in a dose of 100 mg/kg 24 hours before the antigen challenge with SRBC.
Even in this extreme situation, administration of 2-methyl-3-ethoxycarbonyl-4-(2-methoxyphenyl)-5-methoxy-(1-oxacyclopentene-2, example 6) in dose 2.5 mg/kg produces a nearly 3 folds increase in antibody levels. […] (See FIG. 8).

[4] = Administered dose related to LD50; assay type: in vivo; details: Levamisol dose 2.5 mg/kg
[5] = dose 10 mg/kg, mice sensitized with SRBC

SMILES | AFC number increase, % of control ([1]; dose 2.5 mg/kg) [%] | AFC number increase, % of control ([1]; dose 5 mg/kg) [%] | AFC number increase, % of control ([1]; dose 10 mg/kg) [%] | DTH foot pad edema, % of control [2, 5] [%] | further results
CCOC(=O)C1=C(C)OC(OC)C1c1ccccc1OC (stereo not shown) [Example 6] | 260 | 229 | 440 | 190 | Increase in antibody levels ([3]; dose 2.5 mg/kg, Adriamycin 5 mg/kg i.p. one day before SRBC immunization): ~3 folds
COC1OC(C)=C(C(=O)[O-])C1CC(C)C.[Li+] (stereo not shown) [Example 10] | 290 | 320 | 470 | 360 | –
CCCCC1C(C(=O)OCC)=C(C)OC1OC (stereo not shown) [Example 12] | 251 | 239 | 291 | 230 | –
CCOC(=O)C1=C(C)OC(OC)C1CC(C)C (stereo not shown) [Example 1] | 209 | 275 | 453 | 300 | –
c1ccc([C@H]2CN3CCSC3=N2)cc1 [Levamisol, reference compound] | 121 | – | – | – | Increase in antibody formation ([1]; Levamisol positive reference, dose 2.5 mg/kg): 20%; Toxic effects (AFC not determined at higher doses) ([1]; mouse, in vivo): ND (toxic effects); DTH foot pad edema, % of control ([2]; Levamisol positive control, dose 2.5 mg/kg): 240%; Cellular immune response increase ([2]; after Levamisol administration): 240%; Antibody response in Adriamycin immunosuppression model ([3]; Adriamycin-induced immunosuppression): no antibody response; Administered dose as % of LD50 [4]: 10 % of LD50
CCOC(=O)C1=C(C)OC(OC)C1c1ccc(OC)cc1 (stereo not shown) [Example 15] | 291 | 312 | 267 | 160 | –
CCOC(=O)C1=C(C(Br)Br)OC(OC)C1c1ccccc1 (stereo not shown) [Example 8] | 188 | 276 | 271 | 260 | –
CCCCCCCCCCCC1C(C(=O)OCC)=C(C)OC1OC (stereo not shown) [Example 4] | 253 | 330 | 282 | 240 | –
CCOC(=O)C1=C(CC)OC(OC)C1c1ccc(C)cc1C (stereo not shown) [Example 16] | 165 | 192 | 217 | 140 | –
COC1OC(C)=C(C(=O)O)C1CC(C)C (stereo not shown) [Example 9] | 230 | 320 | 360 | 360 | –
CCOC(=O)C1=C(C)OC(OC)C1c1ccc(Cl)cc1Cl (stereo not shown) [Example 7] | 269 | 302 | 358 | 230 | –
CCOC(=O)C1=C(C)OC(OC)C1c1cccc(OC)c1 (stereo not shown) [Example 14] | 135 | 187 | 254 | 200 | –
CCOC(=O)C1=C(C)OC(OC)C1c1ccccc1 (stereo not shown) [Example 5] | 202 | 324 | 259 | 200 | –
CCCCCC1C(C(=O)OCC)=C(C)OC1OC (stereo not shown) [Example 2] | 360 | 331 | 330 | 220 | –
CCCCCCC1C(C(=O)OCC)=C(C)OC1OC (stereo not shown) [Example 11] | 245 | 241 | 287 | 210 | –
CCOC(=O)C1=C(C)OC(OC)C1c1cccnc1 (stereo not shown) [Example 13] | 168 | 201 | 191 | 180 | –
CCCCCCCCCC1C(C(=O)OCC)=C(C)OC1OC (stereo not shown) [Example 3] | 225 | 289 | 326 | 250 | –
COc1cccc2c1C(=O)c1c(O)c3c(c(O)c1C2=O)C[C@@](O)(C(=O)CO)C[C@@H]3O[C@H]1C[C@H](N)[C@H](O)[C@H](C)O1 [Adriamycin] | – | – | – | – | Total number of AFC, % of initial values ([3]; after Adriamycin administration (5 mg/kg i.p.)): 1-2%
